Reference: patent publication US12275731B2, “Azaindole inhibitors of wild-type and mutant forms of LRRK2” (DANA-FARBER CANCER INSTITUTE, INC., priority 2018, dated 2025)

Assays:
Experiment in all cases: KinomeScan profiling
Assay type in all cases: binding
STK16 = target: T1, STK16 (Homo sapiens, UniProt O75716); details: STK16, 1 μM; read-out: % control
T1 construct: purchased KinomeScan® (panel service)
In short: (§1)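 Compounds were screened at 1 μM in DMSO across a 468-kinase KinomeScan panel. Binding was expressed as % control, scaled between a positive control (0%) and DMSO (100%) using luminescence signal. A value under 35% counted as active.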

IGF1R = IGF1R (Homo sapiens, UniProt P08069); details: read-out: % control
IGF1R, sequence (P08069 31-1367): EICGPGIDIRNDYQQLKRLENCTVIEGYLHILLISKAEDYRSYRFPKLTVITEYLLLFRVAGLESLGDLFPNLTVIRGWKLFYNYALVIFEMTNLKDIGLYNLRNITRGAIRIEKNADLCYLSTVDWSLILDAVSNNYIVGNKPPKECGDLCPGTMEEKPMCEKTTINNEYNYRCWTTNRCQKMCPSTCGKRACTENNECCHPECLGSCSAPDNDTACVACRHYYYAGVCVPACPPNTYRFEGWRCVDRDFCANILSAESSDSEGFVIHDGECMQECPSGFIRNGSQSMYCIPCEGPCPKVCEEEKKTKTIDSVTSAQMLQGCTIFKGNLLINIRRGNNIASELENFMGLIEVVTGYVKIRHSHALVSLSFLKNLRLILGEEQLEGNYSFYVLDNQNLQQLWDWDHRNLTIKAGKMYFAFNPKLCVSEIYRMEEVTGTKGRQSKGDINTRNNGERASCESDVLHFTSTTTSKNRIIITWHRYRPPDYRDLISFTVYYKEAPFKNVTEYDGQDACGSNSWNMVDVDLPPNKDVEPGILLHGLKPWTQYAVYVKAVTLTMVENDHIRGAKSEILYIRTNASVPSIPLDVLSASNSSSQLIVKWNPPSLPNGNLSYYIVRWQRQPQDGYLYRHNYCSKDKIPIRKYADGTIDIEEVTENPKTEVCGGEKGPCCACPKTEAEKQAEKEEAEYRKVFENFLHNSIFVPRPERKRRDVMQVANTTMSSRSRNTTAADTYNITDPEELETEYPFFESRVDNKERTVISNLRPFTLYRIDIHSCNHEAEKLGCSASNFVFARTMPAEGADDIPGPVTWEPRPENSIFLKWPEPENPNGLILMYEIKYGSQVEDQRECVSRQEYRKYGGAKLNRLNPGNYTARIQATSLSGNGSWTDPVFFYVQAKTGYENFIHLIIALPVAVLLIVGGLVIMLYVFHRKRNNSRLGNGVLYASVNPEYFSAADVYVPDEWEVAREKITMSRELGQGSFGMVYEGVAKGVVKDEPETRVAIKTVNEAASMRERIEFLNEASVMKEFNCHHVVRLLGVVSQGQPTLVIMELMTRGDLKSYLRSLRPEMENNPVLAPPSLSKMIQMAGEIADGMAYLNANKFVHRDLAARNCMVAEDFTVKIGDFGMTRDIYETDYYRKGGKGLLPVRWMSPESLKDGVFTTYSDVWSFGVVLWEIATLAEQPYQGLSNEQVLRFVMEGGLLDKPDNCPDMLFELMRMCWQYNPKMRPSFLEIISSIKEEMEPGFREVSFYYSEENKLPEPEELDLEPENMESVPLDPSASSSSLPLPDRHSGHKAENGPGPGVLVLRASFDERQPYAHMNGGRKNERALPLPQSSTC
In short: as §1

CAMK2D = CAMK2D (Homo sapiens, UniProt Q13557); details: read-out: % control
CAMK2D, sequence (Q13557 whole entry): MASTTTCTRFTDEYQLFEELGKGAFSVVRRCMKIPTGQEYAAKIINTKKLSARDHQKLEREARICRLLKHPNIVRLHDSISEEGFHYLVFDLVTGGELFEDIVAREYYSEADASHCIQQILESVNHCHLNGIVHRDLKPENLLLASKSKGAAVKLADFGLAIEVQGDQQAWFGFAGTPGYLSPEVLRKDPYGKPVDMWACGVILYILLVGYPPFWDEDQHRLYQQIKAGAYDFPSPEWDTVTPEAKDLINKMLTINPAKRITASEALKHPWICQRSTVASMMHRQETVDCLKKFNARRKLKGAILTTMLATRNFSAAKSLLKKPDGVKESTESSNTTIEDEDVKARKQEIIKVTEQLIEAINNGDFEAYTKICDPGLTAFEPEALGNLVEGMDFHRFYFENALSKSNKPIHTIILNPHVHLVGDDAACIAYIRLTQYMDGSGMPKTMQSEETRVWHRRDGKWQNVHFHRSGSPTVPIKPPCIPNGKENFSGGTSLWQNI
In short: as §1

ASK2 = target: T2, ASK2 (Homo sapiens, UniProt O95382); details: ASK2, 1 μM; read-out: % control
T2 construct: purchased KinomeScan®
T2 sequence (O95382 1-1288): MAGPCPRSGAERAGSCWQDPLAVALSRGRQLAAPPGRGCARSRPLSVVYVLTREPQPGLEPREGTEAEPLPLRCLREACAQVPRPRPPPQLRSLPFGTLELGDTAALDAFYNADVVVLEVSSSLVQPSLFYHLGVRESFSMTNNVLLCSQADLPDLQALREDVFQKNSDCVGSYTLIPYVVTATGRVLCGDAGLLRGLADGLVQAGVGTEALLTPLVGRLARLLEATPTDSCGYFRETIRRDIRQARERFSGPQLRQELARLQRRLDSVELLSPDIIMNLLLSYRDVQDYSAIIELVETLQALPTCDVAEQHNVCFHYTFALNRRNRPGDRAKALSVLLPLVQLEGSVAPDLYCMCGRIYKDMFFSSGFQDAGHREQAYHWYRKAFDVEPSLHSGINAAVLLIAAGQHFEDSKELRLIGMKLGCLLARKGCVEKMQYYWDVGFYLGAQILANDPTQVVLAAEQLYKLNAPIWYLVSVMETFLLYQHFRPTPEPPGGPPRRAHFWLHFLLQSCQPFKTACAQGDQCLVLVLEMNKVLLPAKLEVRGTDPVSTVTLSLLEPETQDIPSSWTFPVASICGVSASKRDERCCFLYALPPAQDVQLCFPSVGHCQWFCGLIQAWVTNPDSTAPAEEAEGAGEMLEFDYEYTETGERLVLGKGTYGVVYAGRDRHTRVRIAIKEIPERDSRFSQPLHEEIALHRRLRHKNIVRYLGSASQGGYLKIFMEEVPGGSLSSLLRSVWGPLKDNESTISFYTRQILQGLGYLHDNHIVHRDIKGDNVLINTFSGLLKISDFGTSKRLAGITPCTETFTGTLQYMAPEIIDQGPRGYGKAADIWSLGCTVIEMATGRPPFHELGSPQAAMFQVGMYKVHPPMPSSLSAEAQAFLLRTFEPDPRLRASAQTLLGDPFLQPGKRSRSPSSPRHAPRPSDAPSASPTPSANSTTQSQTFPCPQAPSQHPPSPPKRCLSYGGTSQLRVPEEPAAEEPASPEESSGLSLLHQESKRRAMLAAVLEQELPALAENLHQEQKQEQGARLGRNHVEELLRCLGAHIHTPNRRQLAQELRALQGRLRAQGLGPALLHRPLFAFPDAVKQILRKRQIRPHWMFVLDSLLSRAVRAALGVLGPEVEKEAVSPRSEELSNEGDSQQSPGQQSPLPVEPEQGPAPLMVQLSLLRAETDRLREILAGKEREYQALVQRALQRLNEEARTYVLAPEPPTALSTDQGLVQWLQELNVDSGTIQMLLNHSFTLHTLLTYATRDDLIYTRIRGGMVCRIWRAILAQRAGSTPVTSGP
In short: as §1

EPHA3 = target: T3, EPHA3 (Homo sapiens, UniProt P29320); details: EPHA3, 1 μM; read-out: % control
T3 sequence (P29320 21-983): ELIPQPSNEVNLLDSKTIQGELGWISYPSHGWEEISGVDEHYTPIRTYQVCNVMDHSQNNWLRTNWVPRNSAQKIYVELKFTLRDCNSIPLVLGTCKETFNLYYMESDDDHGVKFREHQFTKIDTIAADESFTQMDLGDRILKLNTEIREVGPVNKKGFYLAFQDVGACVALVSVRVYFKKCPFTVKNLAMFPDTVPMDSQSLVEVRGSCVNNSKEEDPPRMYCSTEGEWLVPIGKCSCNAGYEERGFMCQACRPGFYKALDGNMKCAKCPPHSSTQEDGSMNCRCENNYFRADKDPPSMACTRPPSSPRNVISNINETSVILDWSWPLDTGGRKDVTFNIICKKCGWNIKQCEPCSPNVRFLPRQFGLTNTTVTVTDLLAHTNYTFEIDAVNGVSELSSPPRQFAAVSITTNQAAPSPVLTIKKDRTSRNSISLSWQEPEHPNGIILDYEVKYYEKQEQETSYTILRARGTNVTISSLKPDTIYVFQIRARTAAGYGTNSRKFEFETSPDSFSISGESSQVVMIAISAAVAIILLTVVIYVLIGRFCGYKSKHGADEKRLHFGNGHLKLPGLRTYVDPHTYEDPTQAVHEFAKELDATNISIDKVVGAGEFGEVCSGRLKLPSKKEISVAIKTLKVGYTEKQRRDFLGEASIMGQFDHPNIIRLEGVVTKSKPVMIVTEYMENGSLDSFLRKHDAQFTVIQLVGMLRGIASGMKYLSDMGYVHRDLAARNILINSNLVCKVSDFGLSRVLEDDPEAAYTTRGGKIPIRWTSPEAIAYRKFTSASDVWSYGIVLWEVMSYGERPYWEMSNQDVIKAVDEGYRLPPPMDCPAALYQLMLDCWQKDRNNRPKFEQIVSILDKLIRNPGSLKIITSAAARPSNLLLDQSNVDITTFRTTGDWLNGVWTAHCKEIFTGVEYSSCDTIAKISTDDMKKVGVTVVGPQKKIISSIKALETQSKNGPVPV
In short: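 Selectivity was assessed by binding competition at 1 μM against 468 kinases. Values below 35% of control define an interaction.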

KIT = target: T4, KIT (Homo sapiens, UniProt P10721); details: read-out: % control
T4 construct: purchased KinomeScan®
T4 sequence (P10721 26-976): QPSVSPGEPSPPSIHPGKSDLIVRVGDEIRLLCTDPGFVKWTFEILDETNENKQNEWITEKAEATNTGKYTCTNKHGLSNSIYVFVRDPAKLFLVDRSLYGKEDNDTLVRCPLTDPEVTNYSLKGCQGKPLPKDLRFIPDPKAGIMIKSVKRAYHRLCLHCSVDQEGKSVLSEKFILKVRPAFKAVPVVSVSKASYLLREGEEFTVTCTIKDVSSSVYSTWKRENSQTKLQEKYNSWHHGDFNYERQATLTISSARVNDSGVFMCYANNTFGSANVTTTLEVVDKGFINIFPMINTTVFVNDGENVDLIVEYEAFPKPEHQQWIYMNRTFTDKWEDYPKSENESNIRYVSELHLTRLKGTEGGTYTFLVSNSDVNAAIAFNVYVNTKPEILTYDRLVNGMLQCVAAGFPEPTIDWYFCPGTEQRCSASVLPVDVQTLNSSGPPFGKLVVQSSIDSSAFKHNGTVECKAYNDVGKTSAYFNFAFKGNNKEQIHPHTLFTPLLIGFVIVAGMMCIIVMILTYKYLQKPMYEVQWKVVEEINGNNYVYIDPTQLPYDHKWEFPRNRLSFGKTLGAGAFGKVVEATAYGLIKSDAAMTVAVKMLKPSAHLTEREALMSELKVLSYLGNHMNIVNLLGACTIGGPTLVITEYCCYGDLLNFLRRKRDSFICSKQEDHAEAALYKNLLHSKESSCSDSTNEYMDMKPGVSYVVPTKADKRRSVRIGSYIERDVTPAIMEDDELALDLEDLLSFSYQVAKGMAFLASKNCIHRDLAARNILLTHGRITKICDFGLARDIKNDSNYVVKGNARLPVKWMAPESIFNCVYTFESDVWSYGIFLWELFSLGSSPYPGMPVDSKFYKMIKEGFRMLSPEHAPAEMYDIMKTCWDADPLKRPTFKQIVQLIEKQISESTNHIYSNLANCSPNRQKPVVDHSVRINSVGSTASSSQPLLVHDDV
In short: as §1

CSNK1G2 = CSNK1G2 (Homo sapiens, UniProt P78368); details: CSNK1G2, 1 μM; read-out: % control
CSNK1G2, sequence (P78368 whole entry): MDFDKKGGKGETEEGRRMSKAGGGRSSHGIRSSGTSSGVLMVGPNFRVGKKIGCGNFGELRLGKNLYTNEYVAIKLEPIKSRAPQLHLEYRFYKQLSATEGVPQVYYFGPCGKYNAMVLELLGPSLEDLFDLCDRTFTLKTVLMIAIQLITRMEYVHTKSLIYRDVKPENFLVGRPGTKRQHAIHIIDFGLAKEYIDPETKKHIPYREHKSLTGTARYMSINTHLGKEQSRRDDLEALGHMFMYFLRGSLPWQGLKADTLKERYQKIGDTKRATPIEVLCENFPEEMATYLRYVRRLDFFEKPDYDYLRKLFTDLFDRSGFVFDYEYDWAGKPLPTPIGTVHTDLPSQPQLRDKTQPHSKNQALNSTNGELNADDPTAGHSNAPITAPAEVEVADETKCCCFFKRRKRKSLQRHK
In short: as §1

T1 sequence (O75716 whole entry): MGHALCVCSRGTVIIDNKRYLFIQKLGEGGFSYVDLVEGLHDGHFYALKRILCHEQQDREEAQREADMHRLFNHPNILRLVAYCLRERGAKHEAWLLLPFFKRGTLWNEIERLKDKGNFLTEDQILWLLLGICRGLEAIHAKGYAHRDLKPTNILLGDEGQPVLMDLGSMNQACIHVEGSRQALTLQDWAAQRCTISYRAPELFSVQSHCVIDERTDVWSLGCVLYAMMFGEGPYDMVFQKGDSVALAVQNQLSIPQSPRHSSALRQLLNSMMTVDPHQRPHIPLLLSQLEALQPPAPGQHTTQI

Row | Structure (SMILES) | remaining binding at 1 µM (STK16) [%] | remaining binding at 1 µM (IGF1R) [%] | remaining binding at 1 µM (CAMK2D) [%] | remaining binding at 1 µM (ASK2) [%] | remaining binding at 1 µM (EPHA3) [%] | remaining binding at 1 µM (KIT) [%] | remaining binding at 1 µM (CSNK1G2) [%]
1 | CNc1c(-c2cnn([C@H]3CCN(C(C)=O)C[C@@H]3F)c2)cnc2[nH]cc(Cl)c12 [Compound 77, 1-((3S,4S)-4-(4-(3-chloro-4-(methylamino)-1H-pyrrolo[2,3-b]pyridin-5-yl)-1H-pyrazol-1-yl)-3-fluoropiperidin-1-yl)ethan-1-one] | 2.9 | 91 | 100 | 30 | 90 | 4.8 | 81
2 | CNc1c(-c2ccc(C(=O)N3CCC(N4CCOCC4)CC3)cc2)cnc2[nH]cc(Cl)c12 [Compound 96, (4-(3-chloro-4-(methylamino)-1H-pyrrolo[2,3-b]pyridin-5-yl)phenyl)(4-morpholinopiperidin-1-yl)methanone] | 2 | 100 | 100 | 42 | 100 | 11 | 93
3 | O=C(c1ccc(-c2cnc3[nH]cc(Cl)c3c2NC2CCCC2)cc1)N1CCC(N2CCOCC2)CC1 [Compound 101, (4-(3-chloro-4-(cyclopentylamino)-1H-pyrrolo[2,3-b]pyridin-5-yl)phenyl)(4-morpholinopiperidin-1-yl)methanone] | 13 | 86 | 93 | 100 | 82 | 58 | 73
